Source: ChEMBL document CHEMBL1201862, “PubChem BioAssay data set” (2004)
Active and inactive are the calls of the source.

Legend:
[1] = target: Ras and Rab interactor 1/Tyrosine-protein kinase ABL1 (Homo sapiens, UniProt P00519+Q13671); type: functional;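 note: biochemical TR-FRET dose-response test measuring inhibition of binding between Rin1 and Abl proteins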
[2] = target: T1, Sentrin-specific protease 8 (Homo sapiens, UniProt Q96LD8); test: inhibition of human SENP8 cleavage activity – biochemical, luminescence, SAR follow-up (AID 504501); type: functional
T1 sequence (Q96LD8 whole entry): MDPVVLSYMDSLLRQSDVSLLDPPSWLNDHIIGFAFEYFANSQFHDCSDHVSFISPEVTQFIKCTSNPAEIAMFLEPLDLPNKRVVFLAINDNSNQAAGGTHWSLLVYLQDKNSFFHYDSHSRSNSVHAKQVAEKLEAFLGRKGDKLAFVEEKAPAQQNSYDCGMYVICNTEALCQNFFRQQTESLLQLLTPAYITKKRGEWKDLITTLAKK

[3] = target: T2, Sentrin-specific protease 6 (Homo sapiens, UniProt Q9GZR1); test: SAR Analysis of small molecule inhibitors of Sentrin-specific protease 6 (SENP6) using a Luminescent assay. [Related pubchem assays (depositor defined):AID2582, AID2599]; type: functional
T2 sequence (Q9GZR1 whole entry): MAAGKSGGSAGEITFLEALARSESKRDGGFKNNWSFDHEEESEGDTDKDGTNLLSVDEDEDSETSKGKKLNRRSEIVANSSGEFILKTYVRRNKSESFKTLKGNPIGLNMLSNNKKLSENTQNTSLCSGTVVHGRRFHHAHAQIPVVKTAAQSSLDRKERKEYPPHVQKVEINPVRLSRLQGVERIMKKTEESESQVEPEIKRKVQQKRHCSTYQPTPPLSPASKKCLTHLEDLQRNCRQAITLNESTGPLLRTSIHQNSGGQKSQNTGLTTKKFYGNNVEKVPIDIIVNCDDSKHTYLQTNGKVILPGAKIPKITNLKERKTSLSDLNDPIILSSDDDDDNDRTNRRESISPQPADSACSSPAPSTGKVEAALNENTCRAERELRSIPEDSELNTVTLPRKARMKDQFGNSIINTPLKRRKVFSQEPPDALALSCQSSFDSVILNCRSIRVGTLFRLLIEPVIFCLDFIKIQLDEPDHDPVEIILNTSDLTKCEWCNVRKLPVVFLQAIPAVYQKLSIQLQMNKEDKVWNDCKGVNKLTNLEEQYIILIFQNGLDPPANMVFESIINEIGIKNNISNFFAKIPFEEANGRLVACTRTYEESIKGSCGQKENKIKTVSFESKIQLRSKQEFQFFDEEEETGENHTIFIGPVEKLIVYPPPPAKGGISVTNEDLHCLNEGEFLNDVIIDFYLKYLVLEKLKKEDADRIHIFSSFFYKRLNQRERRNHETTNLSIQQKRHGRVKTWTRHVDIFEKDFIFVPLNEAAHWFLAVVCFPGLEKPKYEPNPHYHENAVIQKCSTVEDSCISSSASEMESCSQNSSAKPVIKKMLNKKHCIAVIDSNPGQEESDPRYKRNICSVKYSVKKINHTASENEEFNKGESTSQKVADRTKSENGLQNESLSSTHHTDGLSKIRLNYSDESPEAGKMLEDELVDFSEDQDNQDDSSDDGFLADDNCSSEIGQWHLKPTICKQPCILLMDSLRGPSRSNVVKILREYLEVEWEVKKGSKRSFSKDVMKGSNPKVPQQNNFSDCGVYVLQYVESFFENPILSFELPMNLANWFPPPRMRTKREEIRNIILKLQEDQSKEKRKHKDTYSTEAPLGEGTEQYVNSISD

[4] = Luminescence Cell-Based Dose Response HTS to Identify Activators of Luciferase Translation or Activity in H4 […] Cells. [Related pubchem assays: 1829 (Project Summary), 1814 (Primary HTS)]; type: functional
H4 = test: Luminescence Cell-Based Dose Response HTS to Identify Activators of 5'UTR Stem-Loop Driven Prion Protein mRNA Translation in H4 Neuroglioblastoma Cells. [Related pubchem assays: 1829 (Project Summary), 1814 (Primary HTS)]; type: functional; details: Homo sapiens
Caspase-3 = target: T3, Caspase-3 (Homo sapiens, UniProt P42574); test: SAR Analysis of small molecule inhibitors of Sentrin-specific proteases (SENPs) using a Caspase-3 Selectivity assay. [Related pubchem assays (depositor defined):AID2540, AID2599, AID434973, AID489001]; type: functional
T3 sequence (P42574 whole entry): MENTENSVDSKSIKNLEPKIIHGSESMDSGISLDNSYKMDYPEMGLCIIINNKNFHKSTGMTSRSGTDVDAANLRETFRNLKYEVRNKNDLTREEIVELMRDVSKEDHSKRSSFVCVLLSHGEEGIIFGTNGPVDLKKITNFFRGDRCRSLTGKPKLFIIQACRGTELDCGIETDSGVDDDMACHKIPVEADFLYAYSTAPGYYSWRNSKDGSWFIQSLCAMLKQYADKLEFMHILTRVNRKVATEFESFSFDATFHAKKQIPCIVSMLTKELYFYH

[5] = Luminescence Cell-Based Dose Confirmation HTS to Identify Activators of 5'UTR Stem-Loop Driven Alpha-Synuclein mRNA Translation in H4 Neuroglioblastoma Cells. [Related pubchem assays: 1829 (Project Summary), 1814 (Primary HTS)]; type: functional
[6] = target: T4, High affinity choline transporter 1 (Homo sapiens, UniProt Q9GZV3); test: human choline transporter blockers, potency – cell-based, 10-point CRC, membrane potential dye, dose response (AID 588401); type: functional;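 note: membrane potential dye fluorescence of choline-evoked depolarization via CHT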
T4 sequence (Q9GZV3 whole entry): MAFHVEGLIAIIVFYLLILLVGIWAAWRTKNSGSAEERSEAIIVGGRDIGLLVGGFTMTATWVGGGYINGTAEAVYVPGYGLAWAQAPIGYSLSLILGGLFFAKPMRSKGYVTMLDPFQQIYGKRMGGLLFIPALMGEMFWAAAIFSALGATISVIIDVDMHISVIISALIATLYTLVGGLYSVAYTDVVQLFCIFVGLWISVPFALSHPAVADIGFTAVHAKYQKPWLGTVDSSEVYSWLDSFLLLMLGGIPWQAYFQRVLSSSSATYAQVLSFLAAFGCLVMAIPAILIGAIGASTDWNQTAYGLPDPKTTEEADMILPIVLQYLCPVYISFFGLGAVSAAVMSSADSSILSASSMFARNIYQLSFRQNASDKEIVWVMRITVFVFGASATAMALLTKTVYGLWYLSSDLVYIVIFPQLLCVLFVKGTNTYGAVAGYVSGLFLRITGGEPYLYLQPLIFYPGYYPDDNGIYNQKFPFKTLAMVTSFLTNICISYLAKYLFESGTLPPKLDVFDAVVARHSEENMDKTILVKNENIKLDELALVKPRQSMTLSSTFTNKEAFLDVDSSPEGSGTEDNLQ

[7] = target: T5, DNA repair protein RAD52 homolog (Homo sapiens, UniProt P43351); type: functional, biochemical
T5 sequence (P43351 whole entry): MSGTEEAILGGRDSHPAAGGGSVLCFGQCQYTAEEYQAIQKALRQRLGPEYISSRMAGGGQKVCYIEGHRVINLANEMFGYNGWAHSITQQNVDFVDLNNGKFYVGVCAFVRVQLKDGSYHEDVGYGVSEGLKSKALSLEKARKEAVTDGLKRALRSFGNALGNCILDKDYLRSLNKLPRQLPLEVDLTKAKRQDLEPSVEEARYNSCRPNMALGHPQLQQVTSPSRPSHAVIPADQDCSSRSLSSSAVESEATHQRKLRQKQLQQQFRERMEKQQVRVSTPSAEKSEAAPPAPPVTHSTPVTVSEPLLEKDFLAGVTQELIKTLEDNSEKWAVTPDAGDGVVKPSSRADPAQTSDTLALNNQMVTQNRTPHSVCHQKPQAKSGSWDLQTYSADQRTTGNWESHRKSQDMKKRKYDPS

[8] = target: T6, DNA repair and recombination protein RAD54-like (Homo sapiens, UniProt Q92698); test: RAD54 Holliday junction migration blockers – biochemical, fluorescence, cherry-picked samples, dose series, confirmation (AID 651657); type: functional
T6 sequence (Q92698 whole entry): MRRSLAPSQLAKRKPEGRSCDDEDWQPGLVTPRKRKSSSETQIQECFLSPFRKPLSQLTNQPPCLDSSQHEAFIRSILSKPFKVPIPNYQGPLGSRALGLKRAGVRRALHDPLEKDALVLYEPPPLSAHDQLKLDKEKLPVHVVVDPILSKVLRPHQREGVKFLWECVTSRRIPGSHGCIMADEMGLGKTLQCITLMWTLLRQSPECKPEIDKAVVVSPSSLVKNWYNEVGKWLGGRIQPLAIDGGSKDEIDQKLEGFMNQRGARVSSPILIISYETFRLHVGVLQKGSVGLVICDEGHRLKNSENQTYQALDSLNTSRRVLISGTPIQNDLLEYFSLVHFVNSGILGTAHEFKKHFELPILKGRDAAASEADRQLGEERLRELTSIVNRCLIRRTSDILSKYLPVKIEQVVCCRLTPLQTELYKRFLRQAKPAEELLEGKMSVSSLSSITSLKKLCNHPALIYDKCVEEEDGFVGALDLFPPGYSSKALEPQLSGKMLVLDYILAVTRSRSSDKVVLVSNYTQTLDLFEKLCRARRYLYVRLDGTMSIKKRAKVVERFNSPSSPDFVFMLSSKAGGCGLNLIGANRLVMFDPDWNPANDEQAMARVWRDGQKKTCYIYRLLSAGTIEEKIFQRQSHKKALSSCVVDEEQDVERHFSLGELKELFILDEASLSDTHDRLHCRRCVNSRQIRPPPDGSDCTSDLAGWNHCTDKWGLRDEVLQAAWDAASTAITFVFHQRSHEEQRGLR

[9] = target: T4, High affinity choline transporter 1; test: human choline transporter blockers, potency – cell-based, 5-point CRC, membrane potential dye, dose response (AID 504840); type: functional
[10] = target: T7, Short transient receptor potential channel 4 (Mus musculus, UniProt Q9QUQ5); test: block of DAMGO-driven TRPC4 calcium entry – cell-based, HEK293 TRPC4/mu-opioid, Fluo-4 calcium, dose response (AID 434942); type: functional;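 note: potency of inhibitors blocking the TRPC4 calcium response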
T7 sequence (Q9QUQ5 whole entry): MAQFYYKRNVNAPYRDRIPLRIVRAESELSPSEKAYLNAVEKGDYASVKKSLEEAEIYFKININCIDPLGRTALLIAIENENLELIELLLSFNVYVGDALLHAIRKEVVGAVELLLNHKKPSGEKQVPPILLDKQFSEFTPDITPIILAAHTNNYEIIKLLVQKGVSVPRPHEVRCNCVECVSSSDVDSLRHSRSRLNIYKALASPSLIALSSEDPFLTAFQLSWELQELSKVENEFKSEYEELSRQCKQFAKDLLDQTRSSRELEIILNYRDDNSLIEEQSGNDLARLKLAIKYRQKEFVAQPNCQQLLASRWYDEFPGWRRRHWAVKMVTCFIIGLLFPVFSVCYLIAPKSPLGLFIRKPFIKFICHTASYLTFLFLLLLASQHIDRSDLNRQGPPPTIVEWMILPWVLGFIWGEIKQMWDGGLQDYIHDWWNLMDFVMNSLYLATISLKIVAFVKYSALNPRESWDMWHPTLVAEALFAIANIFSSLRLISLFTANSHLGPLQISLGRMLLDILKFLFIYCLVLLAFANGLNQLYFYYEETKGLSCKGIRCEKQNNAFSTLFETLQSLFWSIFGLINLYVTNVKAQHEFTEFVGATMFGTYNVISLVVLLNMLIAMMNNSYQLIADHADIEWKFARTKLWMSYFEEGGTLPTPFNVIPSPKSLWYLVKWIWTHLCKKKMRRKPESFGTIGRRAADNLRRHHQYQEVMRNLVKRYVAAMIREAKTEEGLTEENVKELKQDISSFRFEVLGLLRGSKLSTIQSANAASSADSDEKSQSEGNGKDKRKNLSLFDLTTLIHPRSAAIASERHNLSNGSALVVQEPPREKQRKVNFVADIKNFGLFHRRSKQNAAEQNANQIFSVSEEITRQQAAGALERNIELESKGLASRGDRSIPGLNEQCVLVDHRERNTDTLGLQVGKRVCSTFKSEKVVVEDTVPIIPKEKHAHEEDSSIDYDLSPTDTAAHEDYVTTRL

[11] = non-specific 3'UTR reporter inhibition in Clone20-Shn3RL – cell-based, Renilla luciferase, cherry-picked, counter-screen for Shn3 inhibitor project, dose response (AID 624133); type: functional
[12] = reduction of Shn3 3'UTR-driven luciferase in osteoblasts – cell-based, Clone20 osteoblasts, firefly luciferase, cherry-picked, dose response (AID 624132); type: functional;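 note: firefly luciferase luminescence from reporter carrying the Shn3 3'UTR in osteoblasts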
Protein Wnt-3a = Protein Wnt-3a (Mus musculus, UniProt P27467); test: antagonism of Wnt3a pathway luciferase reporter – Wnt-LIGHT cells, luminescence, selectivity assay for Gli-SUFU antagonist project, dose response (AID 651570); type: functional; details: read-out: IC50_Mean;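 note: Wnt-LIGHT reporter cells stimulated with conditioned medium from Wnt3a-producing cells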
[13] = loss of viability in HepG2 cells – cell-based, CellTiter-Glo, cherry-picked, cytotoxicity control for Shn3 inhibitor project, dose response (AID 624134); type: functional

Sequence of Ras and Rab interactor 1/Tyrosine-protein kinase ABL1 (P00519 whole entry): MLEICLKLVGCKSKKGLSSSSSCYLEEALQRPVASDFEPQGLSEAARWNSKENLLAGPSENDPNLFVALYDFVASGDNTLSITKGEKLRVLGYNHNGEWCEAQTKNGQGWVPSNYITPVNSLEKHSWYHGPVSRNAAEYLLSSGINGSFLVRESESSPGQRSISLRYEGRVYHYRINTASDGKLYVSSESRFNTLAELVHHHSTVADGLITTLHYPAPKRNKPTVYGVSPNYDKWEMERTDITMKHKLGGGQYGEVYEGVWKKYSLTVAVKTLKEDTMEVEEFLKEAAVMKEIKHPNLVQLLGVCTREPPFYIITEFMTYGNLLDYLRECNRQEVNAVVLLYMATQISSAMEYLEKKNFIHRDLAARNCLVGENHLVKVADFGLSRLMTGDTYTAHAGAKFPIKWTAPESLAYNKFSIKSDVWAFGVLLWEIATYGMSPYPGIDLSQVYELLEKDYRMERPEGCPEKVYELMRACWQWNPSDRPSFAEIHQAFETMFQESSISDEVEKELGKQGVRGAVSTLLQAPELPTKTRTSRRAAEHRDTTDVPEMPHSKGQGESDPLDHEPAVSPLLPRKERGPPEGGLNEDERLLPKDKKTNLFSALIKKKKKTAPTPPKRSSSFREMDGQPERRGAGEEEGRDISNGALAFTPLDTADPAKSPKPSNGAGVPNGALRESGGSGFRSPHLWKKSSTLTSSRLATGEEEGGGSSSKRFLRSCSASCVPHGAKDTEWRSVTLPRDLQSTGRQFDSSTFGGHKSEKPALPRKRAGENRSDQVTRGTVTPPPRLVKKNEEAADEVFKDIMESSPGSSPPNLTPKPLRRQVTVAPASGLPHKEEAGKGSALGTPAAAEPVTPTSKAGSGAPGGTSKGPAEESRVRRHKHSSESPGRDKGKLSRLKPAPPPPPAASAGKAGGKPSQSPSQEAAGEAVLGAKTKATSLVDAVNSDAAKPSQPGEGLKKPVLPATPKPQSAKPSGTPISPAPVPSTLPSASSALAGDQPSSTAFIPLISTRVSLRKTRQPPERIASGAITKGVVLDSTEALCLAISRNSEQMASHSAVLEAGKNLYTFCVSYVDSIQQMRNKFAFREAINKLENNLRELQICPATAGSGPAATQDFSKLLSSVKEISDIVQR
Sequence of Ras and Rab interactor 1/Tyrosine-protein kinase ABL1 (Q13671 whole entry): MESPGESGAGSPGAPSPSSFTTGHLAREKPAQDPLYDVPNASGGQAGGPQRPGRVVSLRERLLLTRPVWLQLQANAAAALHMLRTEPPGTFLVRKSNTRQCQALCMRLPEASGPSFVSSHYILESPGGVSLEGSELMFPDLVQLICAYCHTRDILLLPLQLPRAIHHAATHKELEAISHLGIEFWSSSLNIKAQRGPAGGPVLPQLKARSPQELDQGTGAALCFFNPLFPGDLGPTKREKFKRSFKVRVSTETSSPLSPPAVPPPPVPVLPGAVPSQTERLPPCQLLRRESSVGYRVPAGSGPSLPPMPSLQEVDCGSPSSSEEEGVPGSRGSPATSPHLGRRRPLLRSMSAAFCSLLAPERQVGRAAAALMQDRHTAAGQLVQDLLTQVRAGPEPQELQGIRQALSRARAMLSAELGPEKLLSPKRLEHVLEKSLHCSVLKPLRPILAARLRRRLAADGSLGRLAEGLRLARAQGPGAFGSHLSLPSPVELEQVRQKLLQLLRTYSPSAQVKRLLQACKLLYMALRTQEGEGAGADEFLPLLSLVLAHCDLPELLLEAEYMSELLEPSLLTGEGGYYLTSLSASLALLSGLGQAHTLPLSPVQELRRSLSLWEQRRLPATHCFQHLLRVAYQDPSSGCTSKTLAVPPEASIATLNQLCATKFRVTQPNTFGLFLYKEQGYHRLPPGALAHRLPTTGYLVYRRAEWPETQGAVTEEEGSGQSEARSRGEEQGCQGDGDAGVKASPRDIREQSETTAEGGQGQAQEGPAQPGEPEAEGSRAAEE
Sequence of Protein Wnt-3a (P27467 whole entry): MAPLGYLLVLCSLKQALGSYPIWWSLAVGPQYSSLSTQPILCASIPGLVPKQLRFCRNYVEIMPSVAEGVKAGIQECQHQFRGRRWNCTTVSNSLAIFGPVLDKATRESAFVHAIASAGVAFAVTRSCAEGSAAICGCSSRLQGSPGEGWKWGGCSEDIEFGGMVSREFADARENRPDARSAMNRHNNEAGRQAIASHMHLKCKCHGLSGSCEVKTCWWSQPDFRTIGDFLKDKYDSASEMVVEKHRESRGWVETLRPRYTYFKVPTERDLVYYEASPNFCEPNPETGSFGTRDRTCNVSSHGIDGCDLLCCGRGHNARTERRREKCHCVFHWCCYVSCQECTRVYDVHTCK

Structure (SMILES): CCCc1ncc(CN2CCC(C(=O)Nc3cccc(-c4cscn4)c3)CC2)cn1
- IC50 [1]: 22.3 µM (inactive)

Structure (SMILES): CC(=O)Nc1ccc(/C=C/c2n[nH]c(-c3ccccc3O)n2)cc1
- IC50 [2]: > 99 µM (inactive)
- IC50 [3]: > 99 µM (inactive)
- EC50 [4]: 13.6 µM (active)
- EC50 (H4): 1.33 µM (active)
- IC50 (Caspase-3): 30 µM (active)
- EC50 [5]: 2.79 µM (active)

Structure (SMILES): CCCN1CCN(CCCN=C(S)Nc2ccc3nc(N4CCN(CC)CC4)cc(C)c3c2)CC1
- IC50 [6]: 2.67 µM (active)
- AC50 [7]: 1.71 µM (active)
- AC50 [8]: 25.8 µM (active)
- IC50 [9]: 2.3 µM (active)

Structure (SMILES): Cc1c(C(=O)NCC(c2ccco2)N(C)C)oc2c(Cl)cccc12 (centres undefined)
- IC50 [1]: 5.07 µM (active)
- EC50 [10]: 0.267 µM (active)

Structure (SMILES): Cc1cc(C)nc(SCC(=O)Nc2ccc(N3CCOCC3)c(Cl)c2)n1
- AC50 [11]: 3.13 µM (active)
- AC50 [12]: 1.66 µM (active)
- IC50 (Protein Wnt-3a): 5.24 µM (active)
- AC50 [13]: > 70 µM (inactive)

Structure (SMILES): CC(NC(=O)NC1CCCCC1)c1ccc2c(c1)OCO2 (centres undefined)
- IC50 [6]: 2.57 µM (active)
- IC50 [9]: 3.47 µM (active)

Structure (SMILES): COc1ccc(N(C)S(=O)(=O)c2cccc(C(=O)NC3CCCCC3C)c2)cc1 (centres undefined)
- IC50 [6]: 7.08 µM (active)
- IC50 [9]: 4.79 µM (active)

Structure (SMILES): O=C(Cn1cc(C(=O)C2CC2)c2ccccc21)Nc1ccccc1Cl
- AC50 [11]: 4.12 µM (active)
- AC50 [12]: 3.42 µM (active)
- IC50 (Protein Wnt-3a): 5.2 µM (active)
